Structures are written as SMILES.

For this assay, the system named is incontinence-associated dermatitis (IAD) lesions induced with 5% pancreatin. Description: Incontinence-associated dermatitis (IAD) rabbit model, treatment of induced ear lesions. It counts as in vivo. The conditions noted are these: rabbit ears; 1% clotrimazole, 1% hydrocortisone, 15% zinc oxide applied separately vs combination.
Experimental: A rabbit model of IAD was also investigated. A combination cream (DGBC) was used to assess healing of an animal model of IAD compared with three active components of the cream. Twenty-six IAD lesions were induced and each lesion was treated with the individual components and the combination cream.
Rabbits were purchased from Charles River to be used for these experiments. […] Additionally, the animals' ears were used to maximize the sample size, effectively halving the number of animals required for the project. Twenty-two female rabbits were purchased: 2 for the pilot phase and 18 for phase 2 of the project. The study was conducted, and animals were housed at the AVC Research Facility as per CCAC guidelines. The experimental treatment utilized a therapeutic cream composed of 1.0% hydrocortisone, 1.0% clotrimazole and 15.0% zinc oxide (DGBC).
Induction of IAD. 1.Sedation of rabbit: Midazolam 0.5 mg/kg intramuscularly (IM) plus buprenorphine 0.03 mg/kg IM. Animals were assessed for sedation prior to gauze application. Animals requiring further sedation were sedated with ketamine 5 mg/kg IM. 2.Cleaning of the ear: The skin of both inner ears of each animal were cleaned with a 2×2 gauze saturated with 3 ml isopropyl alcohol and allowed to air dry for 5 minutes before applying the saturated gauze. The animal were held for a period of 5 min to ensure the ear was dry prior to application of IAD induction. 3.Application of gauze with 5% pancreatin to induce IAD: both ears of the animals were irritated as follows: Sterile 2×2 gauze was used as a carrier for the irritant. The gauze was saturated with 3 ml of pancreatin. 4.Wrapping of the ear: Both ears of each animal had gauze with pancreatin applied to the medial surface. […] 5.Monitoring period of 24 h: After 24 hours the bandage and occlusive dressing was removed and the ears assessed for sufficient irritation. […] Rabbits assessed as painful 1 hour after administration of gabapentin were treated with buprenorphine 0.03 mg/kg SC and be reassessed for pain in 1 hour. […]
Turning to `Clc1ccccc1C(c1ccccc1)(c1ccccc1)n1ccnc1` [clotrimazole, Clotrimazole], the “effect in treating IAD compared with DGBC therapeutic cream” value is “do not produce the same effect”.
Under `C[C@]12CCC(=O)C=C1CC[C@@H]1[C@@H]2[C@@H](O)C[C@@]2(C)[C@H]1CC[C@]2(O)C(=O)CO` [hydrocortisone, 11β, 17α,21-Trihydroxypregn-4-ene-3,20-dione] stands “do not produce the same effect”; under `[O]=[Zn]` [zinc oxide, Zinc oxide], “do not produce the same effect”.

The values are drawn from patent publication US20250375474A1, “COMPOSITIONS FOR THE PREVENTION AND TREATMENT OF MOISTURE-ASSOCIATED SKIN DAMAGE” (SCOTIADERM INC., priority 2022, published 2025).
